From BindingDB's records for doi:10.3109/14756366.2010.528415 (Khyber Medical College, 2011)

Molecular target: Urease (Canavalia ensiformis, UniProt P07374)
Test: Urease Inhibition Assay
Method: Reaction mixtures comprising 25 μL of enzyme (jack bean urease) solution and 55 μL of buffers containing 100 mM urea were incubated with 5 μL of test compounds (0.5 mM concentration) at 30°C for 15 min in 96-well plates. Urease activity was determined by measuring ammonia production using the indophenol method as described by weather burn14. Briefly, 45 μL each phenol reagent (1% w/v phenol and 0.005% w/v sodium nitroprusside) and 70 μL of alkali reagent (0.5% w/v NaOH and0.1% active chloride NaOCl) were added to each well. The increasing absorbance at 630 nm was measured after 50 min, using a microplate reader (Molecular Device). All reactions were performed in triplicate in a final volume of 200 μL.

Sequence of Urease (P07374 whole entry): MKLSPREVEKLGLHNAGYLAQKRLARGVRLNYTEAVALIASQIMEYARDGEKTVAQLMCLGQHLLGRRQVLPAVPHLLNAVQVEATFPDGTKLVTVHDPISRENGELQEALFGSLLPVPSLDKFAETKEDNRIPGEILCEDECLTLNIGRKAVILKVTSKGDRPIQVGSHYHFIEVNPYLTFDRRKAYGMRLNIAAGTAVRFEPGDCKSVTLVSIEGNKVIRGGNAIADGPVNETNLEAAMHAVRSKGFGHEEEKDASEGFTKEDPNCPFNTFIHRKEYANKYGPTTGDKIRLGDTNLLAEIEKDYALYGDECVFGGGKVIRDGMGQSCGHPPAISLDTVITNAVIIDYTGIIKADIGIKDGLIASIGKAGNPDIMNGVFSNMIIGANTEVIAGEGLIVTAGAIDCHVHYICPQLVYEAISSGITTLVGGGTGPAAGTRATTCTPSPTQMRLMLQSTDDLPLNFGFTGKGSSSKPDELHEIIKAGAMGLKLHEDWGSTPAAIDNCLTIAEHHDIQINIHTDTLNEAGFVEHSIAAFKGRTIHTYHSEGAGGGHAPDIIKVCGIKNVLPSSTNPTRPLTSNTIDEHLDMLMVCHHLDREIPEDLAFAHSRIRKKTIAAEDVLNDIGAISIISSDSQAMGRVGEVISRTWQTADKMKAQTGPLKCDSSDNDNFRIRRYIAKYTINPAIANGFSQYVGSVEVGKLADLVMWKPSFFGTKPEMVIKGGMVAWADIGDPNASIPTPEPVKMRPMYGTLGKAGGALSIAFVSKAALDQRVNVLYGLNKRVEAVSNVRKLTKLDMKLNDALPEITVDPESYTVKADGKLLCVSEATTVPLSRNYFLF

Compound	IC50
CC(C)CCCCc1ccc(O[C@@H]2OC(CO)[C@H](O)[C@@H](O)C2O)cc1 (some centres not stated) [Indigoferin-B (2)]	29.7 µM
CC(O)CCCCC(=O)c1c(O)cc(O)cc1O (configuration not stated) [Indigoferin-C (3)]	23.3 µM
